Laboratory results taken from patent US9987237B2, “Methods and devices for using isoperillyl alcohol” (NEONC TECHNOLOGIES INC., priority 2010, dated 2018).

Assays:
[1] = test system: glucose-regulatory protein 78 (GRP-78) and the apoptosis marker CHOP; assay: Western blot for ER stress markers in U251 cells; type: cell-based, human; conditions: U251 TMZ-sensitive and TMZ-resistant (U251-TR1, U251-TR2) cells, 1.5 mM, 18 hours
Experimental: U251 TMZ-sensitive and TMZ-resistant (U251-TR1, U251-TR2) cells were treated with Sigma POH (1.5 mM) or GLP POH (1.5 mM) for 18 hours, then Western blot was performed.

Kras = assay: Western blot for Kras expression in U251 glioma cells; type: cell-based, human; conditions: 500 μM, 24 hours
Experimental: U251 glioma cells were treated with 500 μM Sigma POH, GLP POH or iso-POH (isoPOH65, isoPOH79) for 24 hours, then Western blot was performed.

[2] = test system: U87 temozolomide-resistant cells; assay: MTT cytotoxicity assay, U87 temozolomide-resistant cells; type: cell-based, human; conditions: 48 hours, FIG. 7B
Source text: (§1) J. of Immunological Methods 65: 55 63, 1983. The cytoxicity of the present compound may be studied by colony formation assay. […] Invasion inhibition may be studied by Boyden chambers. In this assay a layer of reconstituted basement membrane. […] In vitro cytotoxicity of iso-POH in temozolomide-sensitive or temozolomide-resistant cells were also studied. […] Similarly.

LN229 human glioma cells = assay: MTT cytotoxicity assay, LN229 glioma cells; type: cell-based
Source text: (§2) J. of Immunological Methods 65: 55 63, 1983. The cytoxicity of the present compound may be studied by colony formation assay. […] Invasion inhibition may be studied by Boyden chambers. In this assay a layer of reconstituted basement membrane. […] Sigma POH is the POH purchased from Sigma Chemicals having a purity of about 96%. […] KWH0744 is the crude POH purchased from Wako having a purity of about 89.5%. […] In vitro cytotoxicity of iso-POH in temozolomide-sensitive or temozolomide-resistant cells were also studied. […] Similarly.

A172 human glioma cells = assay: MTT cytotoxicity assay, A172 glioma cells; type: cell-based
Source text: as §2

[3] = test system: U251 temozolomide-resistant cells; assay: MTT cytotoxicity assay, U251 temozolomide-resistant cells; type: cell-based, human; conditions: 0 mM-3 mM
Source text: as §1

U251 human glioma cells = assay: MTT cytotoxicity assay, U251 glioma cells; type: cell-based
Source text: as §2

[4] = test system: A172 temozolomide-resistant cells; assay: MTT cytotoxicity assay, A172 temozolomide-resistant cells; type: cell-based, human; conditions: 48 hours, FIG. 4B
Source text: as §1

U87 human glioma cells = assay: MTT cytotoxicity assay, U87 glioma cells; type: cell-based; conditions: U87 temozolomide sensitive, 48 hours, FIG. 7A
Source text: as §1

[5] = test system: LN229 temozolomide-resistant cells; assay: MTT cytotoxicity assay, LN229 temozolomide-resistant cells; type: cell-based, human; conditions: 48 hours, FIG. 6B
Source text: as §1

With C=C(C)[C@@H]1CC=C(CO)CC1 [Sigma POH, perillyl alcohol] the “endoplasmic reticulum (ER) stress” value [1] was “increased endoplasmic reticulum (ER) stress”, the “expression of glucose-regulatory protein 78 (GRP-78)” value [1] was “increased expression” and the “expression of the apoptosis marker CHOP” value [1] was “increased expression”. For the same compound, the Kras expression (Kras) was “decreased Kras expression”.
In the case of CC(C)=C1CC=C(CO)CC1 [iso-POH, (4-isopropylidene cyclohex-1-enyl)methanol], the “cytotoxic response (MTT)” value [2] is reported as “greatest response”, the “cytotoxicity (MTT)” value (LN229 human glioma cells; LN229 human glioma cells, FIG. 1, versus POH of different purity) is reported as “much better cytotoxicity than POH with different purity” and the “cytotoxic response (MTT)” value (LN229 human glioma cells; LN229 temozolomide sensitive, 48 hours, FIG. 6A) is reported as “same response”. The “endoplasmic reticulum (ER) stress” value [1] was “increased ER stress”, the “cytotoxicity (MTT)” value (A172 human glioma cells; A172 human glioma cells, FIG. 3, versus POH of different purity) was “much better cytotoxicity than POH with different purity” and the “cytotoxic response (MTT)” value (A172 human glioma cells; A172 temozolomide-sensitive, 48 hours, FIG. 4A, compared to GLP POH and Sigma POH) was “greatest cytotoxic response”. The “cytotoxicity (MTT)” value ([3]; U251-TR1, 24 hours, FIG. 8C) was “greater cytotoxicity”, the “cytotoxicity (MTT)” value ([3]; U251-TR2, 24 hours, FIG. 8B) was “greater cytotoxicity” and the “cytotoxicity (MTT)” value (U251 human glioma cells; TMZ sensitive U251, 24 hours, 0 mM-3 mM, FIG. 8A) was “greater cytotoxicity”. For the same compound, the “cytotoxic response (MTT)” value (U251 human glioma cells; U251 temozolomide-sensitive, 48 hours, FIG. 5A) was “greatest response”, the “cytotoxicity (MTT)” value (U251 human glioma cells; U1251 human glioma cells, FIG. 2, versus POH of different purity) was “much better cytotoxicity than POH with different purity” and the “cytotoxic response (MTT)” value [4] was “response pattern was also seen”. For the same compound, the “cytotoxic response (MTT)” value (U87 human glioma cells) was “greatest response”, the “cytotoxic response (MTT)” value [5] was “same response” and the Kras expression (Kras) was “decreased Kras expression”.
